Laboratory results: patent US20220193185A1, “COMBINATION OF SYNTHETIC PEPTIDES WITH AFFINITY TO THE TGF-ß RECEPTOR AND WITH AFFINITY TO THE IL-10 RECEPTOR, PHARMACEUTICAL COMPOSITION AND THEIR USE AS IMMUNOMODULATORS IN THE TREATMENT OF AUTOIMMUNE, INFLAMMATORY OR ALLERGIC DISEASES” (Universidade Federal de Uberlândia, priority 2019, published 2022)
Bridges are numbered along the chain shown (N, C = ends). Where no end group is shown, it is not given here.

Tests used:
[1] = system: NFkB pathway; test: NFkB expression in Jurkat-Dual reporter cells, luciferase (IL-10 mimetic peptides); format: cell-based; conditions: for concentrations with statistically significant decrease of NFKB activation: peptide pretreatment 1 hour, then TNF-α 200 ng/ml
Description: (§1) In order to investigate the ability of synthetic peptides with affinity to the Interleukin-10 receptor to interfere in the NFkB, IFN and TLR4 pathways, reporter cell lines were used. To analyze whether the isolated peptides (without activation molecules) could induce any type of activation, the isolated peptides were tested in cell lines during 12, 24 and 48 hours of treatment. […] As an example, FIG. 13A, FIG. 13B, and FIG. 13C show an analysis of NFkB expression after stimulation with the synthesized IL-10 receptor affinity synthetic peptides described herein. Cells were treated for 12, 24 and 48 hours with the synthesized peptides Pep 1-IL10, Pep 2-IL10, Pep 3-IL10 and Pep 4-IL10, at different concentrations, without activating molecules. Luciferase was then measured after 12 hours of treatment (FIG. 13A), 24 hours of treatment (FIG. 13B) and 48 hours of treatment (FIG. 13C). […] TNF-α (200 ng/mL) was used as a positive control.
The assay was then carried out using TNF-α as activation molecule not only in the control, but after a pretreatment with the synthesized peptides Pep 1-IL10, Pep 2-IL10, Pep 3-IL10 and Pep 4-IL10, at different concentrations. All peptides were able to modulate NFKB activation after 12, 24 and 48 hours, with different results depending on the concentrations used. […] In the assays shown by FIGS. 14 A, B and C, analysis of NFkB expression was performed in Jurkat-Dual reporter cells. Cells were treated for 1 hour with peptides and TNF-α (200 ng/ml) added. Luciferase was measured after 12 hours of treatment (FIG. 14A), 24 hours of treatment (FIG. 14B) and 48 hours of treatment (FIG. 14C).
Another assay was then performed in which cells were pretreated with TNF-α and the synthesized peptides Pep 1-IL10, Pep 2-IL10, Pep 3-IL10 and Pep 4-IL10, at different concentrations, were added later. All peptides were able to modulate NFKB activation after 12, 24 and 48 hours, with different results depending on the concentrations used. The most significant results will be described below. […] After 48 hours of treatment, Pep 1-IL-10 at a concentration of 0.001 μM (P<0.05) was the one that obtained a result with the highest statistical significance in the decrease of NFKB signaling (FIG. 15C). In the assays shown by FIGS. 15 A, B and C, analysis of NFkB expression was performed in Jurkat-Dual reporter cells. Cells were treated for 1 hour with TNF-α (200 ng/ml) and peptides were added. Luciferase was measured after 12 hours of treatment (FIG. 15A), 24 hours of treatment (FIG. 15B) and 48 hours of treatment (FIG. 15C). TNF-α (200 ng/mL) was used as a positive control and rlL-10 (recombinant Interleukin-10) (0.4 ng/mL) as a negative control. *P<0.05; **P<0.005; ***P<0.0005.

[2] = system: J774 cell line; test: cytokine production after treatment of the J774 cell line; format: cell-based
Description: After 24 hours of treatment, the levels of IL-6, MCP-1 and TNF-α produced were measured.
Decreases were significant compared to cells treated with LPS alone (positive control). *P<0.05; **P<0.005; ***P<0.0005.

[3] = aggregation behavior in solution by Dynamic Light Scattering (DLS); format: physicochemical; conditions: IL-10 mimetic peptides in solution
[4] = system: IFN signaling pathway; test: IFN signaling pathway in Jurkat-Dual reporter cells, SEAP production; format: cell-based; conditions: after 12, 24 and 48 hours; results depend on concentration
Description: as §1
The most significant results will be described below. […] When cells were pretreated with IFN, although peptides at some concentrations indicated results, they were not statistically sufficient. Therefore, we cannot confirm whether they were able to interfere with pathway activation (FIGS. 17 A, B and C) in an equal or better way than the negative control (rIL-10). In the assays shown by FIGS. 16 (A, B and C) and FIGS. 17 (A, B and C), analysis of IFN expression was performed in Jurkat-Dual reporter cells. In the assays shown by FIGS. 16 A, B and C, cells were treated for 1 hour with peptides with further addition of IFN-α (104 EU/ml). Secreted Embryonic Alkaline Phosphatase (SEAP) production was measured after 12 hours of treatment (FIG. 16A), 24 hours of treatment (FIG. 16 B) and 48 hours of treatment (FIG. 16 C). In the assays shown by FIGS. 17A, B and C, cells were treated for 1 hour with IFN-α (104 EU/ml) with further addition of the peptides. SEAP production was measured after (A) 12 hours of treatment (B), 24 hours of treatment and (C) 48 hours of treatment. IFN-α (104 EU/ml) was used as a positive control and rlL-10 (0.4 ng/ml) as a negative control. *P<0.05.

[5] = system: rat basophilic leukemia cells transfected with the human FIϵRI IgE receptor (hRBL); test: IgE-mediated release in hRBL cells sensitized with serum from patients allergic to birch pollen, Bet v 1; format: cell-based; conditions: Pep 1-IL-10 at 1 μM; serum from seven birch pollen allergic donors
Description: The effect of IL-10 mimetic peptides on IgE-mediated release was examined using rat basophilic leukemia cells transfected with the human FIϵRI IgE receptor (hRBL). As an example, we selected as an example Pep 1-IL-10 to show the data obtained. The hRBL cells were sensitized with serum from seven patients allergic to birch pollen. Cells were stimulated with the antigen and its interaction with immobilized IgEs caused a release of b-hexosaminidase.
When cells were treated with a composition comprising Pep 1-IL-10 at 1 μM (FIG. 21A) or rIL10 (FIG. 21B), the amount of Bet v 1 needed to induce the same amount of degranulation was higher when compared to cells treated only with Bet vl (P<0.05). Amount of rBet v 1 (ng/mL) required to induce half the release of b-hexosaminidase using serum from seven birch pollen allergic donors after treatment with Pep 1-IL-10 (A) (P<0.05) and rIL10 (B)*P<0.05.

[6] = system: Jurkat cells; test: cytokine secretion in MMA-stimulated Jurkat cells; format: cell-based, human
[7] = system: IL-8 gene expression; test: luciferase reporter under control of the IL-8 promoter in TNF-α stimulated A549 cells; format: cell-based, human
Excerpt: First, we tested the ability of the synthesized peptides to recognize TGF^RII on the surface of Jurkat cells, immortalized human T lymphocytes, using ELISA. The recombinant TGFβ (rTGFβ1) was used as a positive control. […] To investigate IL-8 cytokine production, we used an immortalized human lung epithelial cell line (A549), which plays an important role in the first defense line to foreign compounds. […] A mediator release assay, based on rat basophilic leukemia (RBL) cells bearing humanized FIERI receptor, was performed to investigate the effect of the synthesized peptides on IgE-mediated degranulation of basophils in an already sensitized system. This sensitive cell-based assay may help to understand the action of the mimetic peptide in an established allergic microenvironment.

[8] = peptide followed by LPS, 24 hours

Molecule	concentration with highest statistical significance in the decrease of NFKB signaling ([1]; cells pretreated 1 hour with TNF-α 200 ng/ml, peptides added, 48 hours) [µM]	concentrations with statistically significant decrease of NFKB activation ([1]; 12 hours)	concentrations with statistically significant decrease of NFKB activation ([1]; 24 hours)	concentrations with statistically significant decrease of NFKB activation ([1]; 48 hours)	induction of NFkB expression by peptides alone ([1]; without activating molecules, 12, 24 and 48 hours, different concentrations)	production of IL-10, IFN-g or IL12p70 ([2]; 24 hours of treatment)	production of IL-6, MCP-1 and TNF-α ([2]; peptide followed by LPS for 24 hours)	concentrations that significantly reduced IL-6 levels vs LPS alone [2, 8]	concentrations that significantly reduced MCP-1 levels vs LPS alone [2, 8]	concentrations that significantly reduced TNF-α levels vs LPS alone [2, 8]	cytokine response to peptide alone ([2]; without LPS stimulation, 24 hours)	measured hydrodynamic radius [3] [nm]	modulation of the activation of the IFN signaling pathway [4]	amount of Bet v 1 needed to induce the same amount of degranulation (half the release of b-hexosaminidase) vs Bet v 1 only [5]	IL-10 secretion [6]	TNF-α secretion [6]	IL-8 gene expression (luciferase reporter) [7]
Pep 1-IL-10: synthetic peptide with affinity to the Interleukin-10 receptor, SEQ ID 09, with disulfide bridges (HACSAVIKSSCGGGS; disulfide 3-11 (inferred))	0.001	all concentrations tested	all concentrations tested	all concentrations tested	not able to induce any response	No interference	able to decrease	1 μM, 10 μM and 100 μM	1 µM and 10 µM	1 μM, 10 μM and 100 μM	unable to induce any response	0.82	able to modulate the activation of the IFN signaling pathway	higher	–	–	–
rTGFβ: recombinant TGFβ (rTGFβ1) used as a positive control	–	–	–	–	–	–	–	–	–	–	–	–	–	–	increased IL-10 secretion	significantly decreased TNF-α secretion	decreased IL-8 gene expression
rIL10: recombinant Interleukin-10, used as control (protein, UniProt P22301 19-178, looked up) Interleukin-10: SPGQGTQSENSCTHFPGNLPNMLRDLRDAFSRVKTFFQMKDQLDNLLLKESLLEDFKGYLGCQALSEMIQFYLEEVMPQAENQDPDIKAHVNSLGENLKTLRLRLRRCHRFLPCENKSKAVEQVKNAFNKLQEKGIYKAMSEFDIFINYIEAYMTMKIRN	–	–	–	–	–	–	–	–	–	–	–	–	–	higher	–	–	–
